Source: PubChem BioAssay AID292 (DTP/NCI, 2004)
Where “and” joins values, the source holds several entries; their conditions need not be identical. Equal values may be shown once. Toxic doses and inconclusive results are not listed. How the source made its calls: active means survival T/C of 150% or more; inactive means T/C below 125% in these data.

Tested on: B6C3F1 mice, ip Sarcoma M5076, median survival T/C
Assay: NCI In Vivo Anticancer Drug Screen. Data for tumor model Sarcoma M5076 (intraperitoneal) in B6C3F1 mice
Details: endpoint: median survival time, higher = longer survival
Method in brief: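 Mice carrying the transplanted tumour received compound treatment. Survival was recorded, and each value is the treated-group measurement divided by that of the vehicle-dosed control group.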

[1] = dose: 25.0 mg/kg/injection, schedule: Q04DX004 (ip), vehicle: saline with Tween-80
[2] = dose: 100.0 mg/kg/injection, schedule: Q04DX004 (ip), vehicle: saline with Tween-80
[3] = dose: 200.0 mg/kg/injection, schedule: Q04DX004 (ip), vehicle: saline with Tween-80
[4] = dose: 25.0 mg/kg/injection, schedule: Q04DX004 (ip), vehicle: suspension in saline
[5] = dose: 50.0 mg/kg/injection, schedule: Q04DX004 (ip), vehicle: suspension in saline
[6] = dose: 6.25 mg/kg/injection, schedule: Q04DX004 (ip), vehicle: Klucel (hydroxypropylcellulose) (HPC)
[7] = dose: 12.5 mg/kg/injection, schedule: Q04DX004 (ip), vehicle: Klucel (hydroxypropylcellulose) (HPC)
[8] = dose: 25.0 mg/kg/injection, schedule: Q04DX004 (ip), vehicle: Klucel (hydroxypropylcellulose) (HPC)
[9] = dose: 25.0 mg/kg/injection, schedule: Q04DX004 (ip), vehicle: saline
[10] = dose: 50.0 mg/kg/injection, schedule: Q04DX004 (ip), vehicle: saline
[11] = dose: 50.0 mg/kg/injection, schedule: Q04DX004 (ip), vehicle: Klucel (hydroxypropylcellulose) (HPC)
[12] = dose: 100.0 mg/kg/injection, schedule: Q04DX004 (ip), vehicle: Klucel (hydroxypropylcellulose) (HPC)
[13] = dose: 200.0 mg/kg/injection, schedule: Q04DX004 (ip), vehicle: Klucel (hydroxypropylcellulose) (HPC)

Measured: T/C

COC1CCCCC1C(N)C(=O)O (stereo not given) (tested in a mixture with another compound)
inactive: [1] 100 % of control | dose: 50.0 mg/kg/injection, schedule: Q04DX004 (ip), vehicle: saline with Tween-80 91 % of control | [2] 95 % of control | [3] 95 % of control | dose: 400.0 mg/kg/injection, schedule: Q04DX004 (ip), vehicle: saline with Tween-80 93 % of control

O=CC(S)CO (stereo not given)
inactive: [4] 108 % of control | [5] 104 % of control | dose: 200.0 mg/kg/injection, schedule: Q04DX004 (ip), vehicle: suspension in saline 118 % of control | dose: 400.0 mg/kg/injection, schedule: Q04DX004 (ip), vehicle: suspension in saline 113 % of control

Nc1c(/C=C/c2cc3cc(C4=NCCN4)ccc3o2)[nH]c2cc(C3=NCCN3)ccc12
inactive: [6] 107 % of control | [7] 106 % of control | [8] 104 % of control

c1cn[nH]c1
inactive: [9] 93 % of control and 100 % of control | [10] 97 % of control and 106 % of control and 107 % of control | dose: 100.0 mg/kg/injection, schedule: Q04DX004 (ip), vehicle: saline 103 % of control and 104 % of control and 107 % of control | dose: 200.0 mg/kg/injection, schedule: Q04DX004 (ip), vehicle: saline 105 % of control and 107 % of control and 110 % of control | dose: 400.0 mg/kg/injection, schedule: Q04DX004 (ip), vehicle: saline 116 % of control

N#CC1C(=O)NC(=S)NC1c1ccccc1 (stereo not given)
inactive: [11] 97 % of control | [12] 101 % of control | [13] 97 % of control | dose: 400.0 mg/kg/injection, schedule: Q04DX004 (ip), vehicle: Klucel (hydroxypropylcellulose) (HPC) 100 % of control

CN1C2C=CC(=O)C1C1C(=O)N(c3ccccc3)C(=O)C12 (stereo not given)
inactive: [11] 102 % of control | [12] 96 % of control | [13] 118 % of control

Clc1cccc2[nH]c(-c3ccncc3)nc12
inactive: dose: 37.5 mg/kg/injection, schedule: Q04DX004 (ip), vehicle: saline with Tween-80 104 % of control | dose: 75.0 mg/kg/injection, schedule: Q04DX004 (ip), vehicle: saline with Tween-80 111 % of control | dose: 150.0 mg/kg/injection, schedule: Q04DX004 (ip), vehicle: saline with Tween-80 98 % of control | dose: 300.0 mg/kg/injection, schedule: Q04DX004 (ip), vehicle: saline with Tween-80 105 % of control | dose: 600.0 mg/kg/injection, schedule: Q04DX004 (ip), vehicle: saline with Tween-80 100 % of control

O=[N+]([O-])c1c(O)c(CNCCCO)cc(CNCCCO)c1O
inactive: dose: 6.25 mg/kg/injection, schedule: Q04DX004 (ip), vehicle: suspension in saline 98 % of control | dose: 12.5 mg/kg/injection, schedule: Q04DX004 (ip), vehicle: suspension in saline 99 % of control | [4] 101 % of control | [5] 118 % of control

C=CC(=O)NCNC(=O)C=C
inactive: [5] 99 % of control | dose: 100.0 mg/kg/injection, schedule: Q04DX004 (ip), vehicle: suspension in saline 115 % of control

CO[C@@]12[C@@H]3N[C@@H]3CN1C1=C(C(=O)C(NCCc3ccccn3)=C(C)C1=O)[C@@H]2COC(N)=O
active: [1] 172 % of control and 197 % of control | dose: 42.0 mg/kg/injection, schedule: Q04DX004 (ip), vehicle: saline with Tween-80 200 % of control | dose: 69.0 mg/kg/injection, schedule: Q04DX004 (ip), vehicle: saline with Tween-80 280 % of control
inactive: dose: 3.2 mg/kg/injection, schedule: Q04DX004 (ip), vehicle: saline with Tween-80 112 % of control | dose: 5.4 mg/kg/injection, schedule: Q04DX004 (ip), vehicle: saline with Tween-80 122 % of control

N=C(N)Sc1ccccn1
inactive: dose: 62.5 mg/kg/injection, schedule: Q04DX004 (ip), vehicle: saline 97 % of control | dose: 125.0 mg/kg/injection, schedule: Q04DX004 (ip), vehicle: saline 101 % of control | dose: 250.0 mg/kg/injection, schedule: Q04DX004 (ip), vehicle: saline 90 % of control

NC(=O)C(N)C(F)c1ccccc1 (stereo not given)
inactive: dose: 31.25 mg/kg/injection, schedule: Q04DX004 (ip), vehicle: saline with Tween-80 100 % of control | dose: 62.5 mg/kg/injection, schedule: Q04DX004 (ip), vehicle: saline with Tween-80 116 % of control | dose: 125.0 mg/kg/injection, schedule: Q04DX004 (ip), vehicle: saline with Tween-80 93 % of control | dose: 250.0 mg/kg/injection, schedule: Q04DX004 (ip), vehicle: saline with Tween-80 96 % of control

O=CC(NC(=O)N(CCCl)N=O)C(O)C(O)C(O)CO (stereo not given)
active: dose: 1.25 mg/kg/injection, schedule: Q04DX005 (ip), vehicle: saline 319 % of control | dose: 2.5 mg/kg/injection, schedule: Q04DX005 (ip), vehicle: saline 319 % of control | dose: 5.0 mg/kg/injection, schedule: Q04DX005 (ip), vehicle: saline 319 % of control | dose: 10.0 mg/kg/injection, schedule: Q04DX005 (ip), vehicle: saline 319 % of control

COc1ccc2[nH]c3ccc4cc[n+](CCN5CCC(C6CCN(CC[n+]7ccc8ccc9[nH]c%10ccc(OC)cc%10c9c8c7)CC6)CC5)cc4c3c2c1
active: dose: 16.0 mg/kg/injection, schedule: Q04DX004 (ip), vehicle: water 157 % of control | dose: 32.0 mg/kg/injection, schedule: Q04DX004 (ip), vehicle: water 194 % of control

COc1cc(C(C)c2cc3c(cc2OCCO)OCO3)cc(OC)c1OC (stereo not given)
inactive: [2] 108 % of control | [3] 104 % of control

CC(/C=C/C1OC(=O)C=CC1C)=C\C(C)C/C=C/C(C)=C/C(C)C(=O)C(C)C(O)C(C)C/C(C)=C/C(=O)O (stereo not given)
active: dose: 50.0 micrograms/kg/injection, schedule: Q04DX004 (ip), vehicle: saline + alcohol 150 % of control | dose: 400.0 micrograms/kg/injection, schedule: Q04DX004 (ip), vehicle: saline + alcohol 177 % of control
inactive: dose: 25.0 micrograms/kg/injection, schedule: Q04DX004 (ip), vehicle: saline + alcohol 118 % of control | dose: 100.0 micrograms/kg/injection, schedule: Q04DX004 (ip), vehicle: saline + alcohol 123 % of control

CC(=O)C1C(=O)C(=O)N(Cc2ccccc2)C1=O (stereo not given)
inactive: dose: 46.88 mg/kg/injection, schedule: Q04DX004 (ip), vehicle: Klucel (hydroxypropylcellulose) (HPC) 98 % of control | dose: 93.75 mg/kg/injection, schedule: Q04DX004 (ip), vehicle: Klucel (hydroxypropylcellulose) (HPC) 95 % of control | dose: 187.5 mg/kg/injection, schedule: Q04DX004 (ip), vehicle: Klucel (hydroxypropylcellulose) (HPC) 99 % of control | dose: 375.0 mg/kg/injection, schedule: Q04DX004 (ip), vehicle: Klucel (hydroxypropylcellulose) (HPC) 98 % of control

O=S(CCCl)CCCl
inactive: [6] 102 % of control | [7] 98 % of control | [8] 98 % of control | [11] 106 % of control

Cc1ccc(/C=C/C(=O)/C=C/c2ccc(C)o2)o1
inactive: dose: 50.0 mg/kg/injection, schedule: Q04DX004 (ip), vehicle: other 101 % of control | dose: 100.0 mg/kg/injection, schedule: Q04DX004 (ip), vehicle: other 109 % of control | dose: 200.0 mg/kg/injection, schedule: Q04DX004 (ip), vehicle: other 108 % of control | dose: 400.0 mg/kg/injection, schedule: Q04DX004 (ip), vehicle: other 101 % of control | dose: 800.0 mg/kg/injection, schedule: Q04DX004 (ip), vehicle: other 95 % of control

O=NNc1ccccn1
inactive: dose: 3.13 mg/kg/injection, schedule: Q04DX004 (ip), vehicle: saline 109 % of control | dose: 6.25 mg/kg/injection, schedule: Q04DX004 (ip), vehicle: saline 117 % of control
active: dose: 18.0 mg/kg/injection, schedule: Q04DX004 (ip), vehicle: saline 172 % of control | [9] 160 % of control | dose: 30.0 mg/kg/injection, schedule: Q04DX004 (ip), vehicle: saline 156 % of control | [10] 184 % of control

CC(=O)OCc1cc(=O)n(C)c2c3c4c(cc12)c(C)cc(=O)n4CO3
inactive: dose: 10.0 mg/kg/injection, schedule: Q04DX004 (ip), vehicle: Klucel (hydroxypropylcellulose) (HPC) 103 % of control | dose: 20.0 mg/kg/injection, schedule: Q04DX004 (ip), vehicle: Klucel (hydroxypropylcellulose) (HPC) 112 % of control | dose: 40.0 mg/kg/injection, schedule: Q04DX004 (ip), vehicle: Klucel (hydroxypropylcellulose) (HPC) 104 % of control | dose: 80.0 mg/kg/injection, schedule: Q04DX004 (ip), vehicle: Klucel (hydroxypropylcellulose) (HPC) 111 % of control

O=C1N2CCNc3ccccc3C(c3ccccc3)N1CC2 (stereo not given)
inactive: [6] 117 % of control | [7] 103 % of control | [8] 106 % of control
